Measurements: ChEMBL document CHEMBL1201862, “PubChem BioAssay data set” (2004)
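Five compound concentrations were applied to cells in 96-well plates for 48 hours; endpoints were derived by simple linear interpolation of the resulting dose-response curve. Abbreviation: GI50, concentration required for 50% inhibition of growth.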 Activity calls are given as the source filed them. No stated cut-off is given here; in the data, active = GI50 up to about 1.1 µM and inactive = higher.

What was measured:
Experiment in all cases: NCI tumour cell line growth inhibition, 48 h
[1] = system: SW-620
[2] = system: KM-20L2
[3] = system: HOP-62
[4] = system: SF-295
[5] = system: MDA-MB-231
[6] = system: M19-MEL
[7] = system: K562
[8] = system: OVCAR-3
[9] = system: 786-0
[10] = system: PC-3
[11] = system: SF-268
[12] = system: SNB-78
[13] = system: NCI/ADR-RES
[14] = system: U-251
[15] = system: UACC-62
[16] = system: HCT-116
[17] = system: SR
[18] = system: OVCAR-4
[19] = system: OVCAR-8
[20] = system: EKVX
[21] = system: COLO 205
[22] = system: M14
[23] = system: KM12
[24] = system: IGROV-1
[25] = system: SK-MEL-5
[26] = system: NCI-H226
[27] = system: HOP-92
[28] = system: MOLT-4
[29] = system: SNB-75
[30] = system: UACC-257
[31] = system: CAKI-1
[32] = system: OVCAR-5
[33] = system: BT-549
[34] = system: LOX IMVI
[35] = system: MDA-MB-435
[36] = system: ACHN
[37] = system: Hs-578T
[38] = system: NCI-H23
[39] = system: LXFL 529
[40] = system: DU-145
[41] = system: DLD-1
[42] = system: SK-MEL-2
[43] = system: RXF 393
[44] = system: DMS-273
[45] = system: HL-60
[46] = system: UO-31
[47] = system: MDA-N
[48] = system: SK-MEL-28
[49] = system: HCT-15
[50] = system: SNB-19
[51] = system: NCI-H522
[52] = system: RPMI-8226
[53] = system: A549
[54] = system: SK-OV-3
[55] = system: NCI-H460
[56] = system: DMS-114
[57] = system: MCF7
[58] = system: SN12C
[59] = system: TK-10
[60] = system: CCRF-CEM
[61] = system: HCC 2998
[62] = system: Malme-3M
[63] = system: XF498
[64] = system: HT-29
[65] = system: A498
[66] = system: SF-539
[67] = system: HOP-18

COc1cc(/C=C\c2ccc(C)cc2)cc(OC)c1OC
GI50 [1]: 1.92 nM (active)
GI50 [2]: 0.117 nM (active)
GI50 [3]: 35.5 nM (active)
GI50 [4]: 1.88 nM (active)
GI50 [5]: 25.9 nM (active)
GI50 [6]: 1.97 nM (active)
GI50 [7]: 1.31 nM (active)
GI50 [8]: 1.15 nM (active)
GI50 [9]: 4.56 nM (active)
GI50 [10]: 12.3 nM (active)
GI50 [11]: 5.05 nM (active)
GI50 [12]: 0.1 nM (active)
GI50 [13]: 7.67 nM (active)
GI50 [14]: 4.41 nM (active)
GI50 [15]: 8.85 nM (active)
GI50 [16]: 1.06 nM (active)
GI50 [17]: 8.41 nM (active)
GI50 [18]: < 10 nM (active)
GI50 [19]: 8.22 nM (active)
GI50 [20]: 72.1 nM (active)
GI50 [21]: 10.1 nM (active)
GI50 [22]: 7.23 nM (active)
GI50 [23]: 5.31 nM (active)
GI50 [24]: 46.6 nM (active)
GI50 [25]: 3.36 nM (active)
GI50 [26]: 26.6 nM (active)
GI50 [27]: 65.2 nM (active)
GI50 [28]: 6.97 nM (active)
GI50 [29]: 2.81 nM (active)
GI50 [30]: 9.04 nM (active)
GI50 [31]: < 10 nM (active)
GI50 [32]: 116 nM (active)
GI50 [33]: 24.6 nM (active)
GI50 [34]: 4.33 nM (active)
GI50 [35]: 2.64 nM (active)
GI50 [36]: 63.7 nM (active)
GI50 [37]: 24.4 nM (active)
GI50 [38]: 36.3 nM (active)
GI50 [39]: 0.4 nM (active)
GI50 [40]: 23.4 nM (active)
GI50 [41]: 2.37 nM (active)
GI50 [42]: < 10 nM (active)
GI50 [43]: < 10 nM (active)
GI50 [44]: 1.2 nM (active)
GI50 [45]: 0.57 nM (active)
GI50 [46]: 120 nM (active)
GI50 [47]: 2.21 nM (active)
GI50 [48]: 16.7 nM (active)
GI50 [49]: 7.46 nM
GI50 [50]: 4 nM (active)
GI50 [51]: 3.23 nM (active)
GI50 [52]: 3.71 nM (active)
GI50 [53]: 4.8 nM (active)
GI50 [54]: 1.7 nM (active)
GI50 [55]: 23.2 nM (active)
GI50 [56]: 0.266 nM (active)
GI50 [57]: 41.5 nM (active)
GI50 [58]: 10.5 nM (active)
GI50 [59]: 73.1 nM (active)
GI50 [60]: 2.27 nM (active)
GI50 [61]: 19.1 nM (active)
GI50 [62]: 3.59 nM (active)
GI50 [63]: 0.33 nM (active)
GI50 [64]: 7.83 nM (active)
GI50 [65]: < 10 nM (active)
GI50 [66]: 2.96 nM (active)

C[N+](C)(C)CC1CCCC(C[N+](C)(C)C)C1=NO (centres undefined)
GI50 [1]: > 100000 nM (inactive)
GI50 [2]: > 100000 nM (inactive)
GI50 [4]: > 100000 nM (inactive)
GI50 [6]: > 100000 nM (inactive)
GI50 [7]: > 100000 nM (inactive)
GI50 [8]: > 100000 nM (inactive)
GI50 [9]: > 100000 nM (inactive)
GI50 [12]: > 100000 nM (inactive)
GI50 [14]: > 100000 nM (inactive)
GI50 [15]: > 100000 nM (inactive)
GI50 [16]: > 100000 nM (inactive)
GI50 [17]: > 100000 nM (inactive)
GI50 [18]: > 100000 nM (inactive)
GI50 [19]: > 100000 nM (inactive)
GI50 [20]: > 100000 nM (inactive)
GI50 [21]: > 100000 nM (inactive)
GI50 [22]: > 100000 nM (inactive)
GI50 [23]: > 100000 nM (inactive)
GI50 [24]: > 100000 nM (inactive)
GI50 [25]: > 100000 nM (inactive)
GI50 [26]: > 100000 nM (inactive)
GI50 [28]: > 100000 nM (inactive)
GI50 [29]: > 100000 nM (inactive)
GI50 [30]: > 100000 nM (inactive)
GI50 [31]: > 100000 nM (inactive)
GI50 [32]: > 100000 nM (inactive)
GI50 [36]: > 100000 nM (inactive)
GI50 [38]: > 100000 nM (inactive)
GI50 [39]: > 100000 nM (inactive)
GI50 [41]: > 100000 nM (inactive)
GI50 [42]: > 100000 nM (inactive)
GI50 [43]: > 100000 nM (inactive)
GI50 [44]: > 100000 nM (inactive)
GI50 [46]: > 100000 nM (inactive)
GI50 [48]: > 100000 nM (inactive)
GI50 [49]: > 100000 nM
GI50 [50]: > 100000 nM (inactive)
GI50 [52]: > 100000 nM (inactive)
GI50 [53]: > 100000 nM (inactive)
GI50 [54]: > 100000 nM (inactive)
GI50 [55]: > 100000 nM (inactive)
GI50 [58]: > 100000 nM (inactive)
GI50 [59]: > 100000 nM (inactive)
GI50 [62]: > 100000 nM (inactive)
GI50 [63]: > 100000 nM (inactive)
GI50 [64]: > 100000 nM (inactive)
GI50 [67]: > 100000 nM (inactive)
GI50 [66]: > 100000 nM (inactive)
